From BindingDB's records for doi:10.1016/j.chembiol.2006.06.007 (University of Wisconsin-Madison, 2006) come the findings set out here.

Holding throughout (assay): High-throughput FP Assay
For assay [1], the target named is T1, UDP-galactopyranose mutase (Mycobacterium tuberculosis (strain ATCC 25618 / H37Rv), UniProt P9WIQ1). The method, then: (§1) To access the ability of compounds to inhibit the catalytic activity of UGM, an HPLC assay was employed. Inhibition constants were determined by monitoring UGM activity at a single substrate concentration while varying inhibitor concentration.

The target of assay [2] is T2, UDP-galactopyranose mutase (Klebsiella pneumoniae, UniProt Q762K7).
The target of assay [3] is T1, UDP-galactopyranose mutase. The source holds these as a separate data set.
For assay [4], the target named is T2, UDP-galactopyranose mutase. The method, then: as §1
The source holds these as a separate data set.

T2 sequence (Q762K7 whole entry): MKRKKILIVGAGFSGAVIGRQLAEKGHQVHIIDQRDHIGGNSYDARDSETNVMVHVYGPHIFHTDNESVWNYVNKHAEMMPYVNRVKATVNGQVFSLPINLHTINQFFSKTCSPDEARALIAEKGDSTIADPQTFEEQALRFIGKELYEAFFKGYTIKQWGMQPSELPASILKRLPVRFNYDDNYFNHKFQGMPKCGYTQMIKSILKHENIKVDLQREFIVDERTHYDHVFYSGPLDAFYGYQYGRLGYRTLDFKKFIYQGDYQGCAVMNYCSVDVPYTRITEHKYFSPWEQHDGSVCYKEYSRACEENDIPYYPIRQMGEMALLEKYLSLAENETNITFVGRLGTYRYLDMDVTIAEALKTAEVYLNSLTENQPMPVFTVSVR
T1 sequence (P9WIQ1 whole entry): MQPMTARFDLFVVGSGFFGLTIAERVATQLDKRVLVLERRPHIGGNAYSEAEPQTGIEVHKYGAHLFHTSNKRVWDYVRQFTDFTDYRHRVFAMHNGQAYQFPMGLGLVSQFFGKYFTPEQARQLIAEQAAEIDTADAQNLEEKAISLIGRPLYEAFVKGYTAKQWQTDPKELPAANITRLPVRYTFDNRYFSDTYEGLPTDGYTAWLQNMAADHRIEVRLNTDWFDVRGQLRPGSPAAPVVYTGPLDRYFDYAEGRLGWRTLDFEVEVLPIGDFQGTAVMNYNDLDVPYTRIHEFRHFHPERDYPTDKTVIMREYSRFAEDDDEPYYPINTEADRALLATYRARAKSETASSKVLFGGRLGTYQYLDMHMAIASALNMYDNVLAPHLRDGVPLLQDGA

Regarding `O=C(O)c1cc(NC(=S)NCCCCCCOP(=O)(O)OP(=O)(O)OCC2OC(n3ccc(=O)[nH]c3=O)C(O)C2O)ccc1-c1c2ccc(=O)cc-2oc2cc(O)ccc12` (stereo unspecified) [Fluorescent Probe 1], the IC50 (as a rule, the midpoint of a concentration-inhibition curve) in assay [1] was determined as 5.7 µM. Further, the results for the Kd in assay [2] and in assay [3] were 0.1 µM and 0.16 µM, respectively.

Regarding `NS(=O)(=O)c1ccc(N2N=C(C(F)(F)F)/C(=C/c3ccc(-c4ccc5c(c4)C(=O)NC5=O)o3)C2=O)cc1` [Pyrazol analog, 2], in assay [2], the Kd (usually a measure of binding affinity in units of concentration) was 1.5 µM.

Consider `CCOC(=O)c1ccc(-c2ccc(/C=C3\C(=O)N(c4ccc(S(N)(=O)=O)cc4)N=C3C(F)(F)F)o2)cc1` [Pyrazol analog, 3], for which the Kd in assay [2] was found to be 3.1 µM.

In assay [2], `CCOC(=O)c1cc(-c2ccc(/C=C3\C(=O)N(c4ccc(S(N)(=O)=O)cc4)N=C3C(F)(F)F)o2)ccc1Cl` [Pyrazol analog, 4] registered a Kd of 6.7 µM.

In assay [3], `O=C1c2cccc3c([N+](=O)[O-])ccc(c23)C(=O)N1Cc1cccnc1` [Pyridin analog, 11] had a Kd of 8 µM.

With `O=C1N/C(=N\S(=O)(=O)c2ccccc2)S/C1=C1/C(=O)Nc2ccc([N+](=O)[O-])cc21` [Thiazolidinone core, 5], in assay [4], inhibition was half-maximal at 17 µM (IC50). Moreover, the Kd in assay [2] worked out at 4 µM.

Regarding `O=C(O)C(Cc1ccccc1)N1C(=O)/C(=C\c2cccc(Br)c2)SC1=S` (stereo unspecified) [Thiazolidinone core, 6], the IC50 is 1.6 µM in assay [4] and 65 µM in assay [1]. Moreover, the results for the Kd in assay [2] and in assay [3] were 9.4 µM and 12 µM, respectively.

In assay [4], `O=C1Nc2ccccc2/C1=C1/SC(=S)N(C(Cc2ccccc2)C(=O)O)C1=O` (stereo unspecified) [Thiazolidinone core, 8] gave an IC50 of 93 µM. Also, the Kd in assay [2] stood at 10.7 µM.

In the case of `O=c1/c(=C/c2cc([N+](=O)[O-])c(O)cc2Cl)sc2nc3ccccc3n12` [Thiazolidinone core, 10], the IC50 in assay [4] was determined as 4 µM; in assay [1], 0.028 µM. In assay [3], this molecule yielded a Kd of 5.3 µM.

On to `O=C(O)C(Cc1ccccc1)N1C(=O)/C(=C/c2cccc(Br)c2)SC1=S` (stereo unspecified) [Thiazolidinone core, 15], for which the Kd in assay [2] and in assay [3] was greater than 33 µM in each case.

For `CC(C(=O)O)N1C(=O)/C(=C\c2cccc(Br)c2)SC1=S` (stereo unspecified) [Thiazolidinone core, 16], the Kd in assay [2] was greater than 33 µM; in assay [3] it was greater than 330 µM.

For the molecule `O=C(O)C(Cc1ccc(O)cc1)N1C(=O)/C(=C\c2cccc(Br)c2)SC1=S` (stereo unspecified) [Thiazolidinone core, 17], the Kd in assay [2] is greater than 11.2 µM; in assay [3] it was greater than 33 µM.

Turning to `O=C(O)CN1C(=O)/C(=C2/C(=O)Nc3ccccc32)SC1=S` [Thiazolidinone core, 18], the Kd is greater than 33 µM in assay [2] and greater than 330 µM in assay [3].

Regarding `CC(C(=O)O)N1C(=O)/C(=C2/C(=O)Nc3ccccc32)SC1=S` (stereo unspecified) [Thiazolidinone core, 19], the Kd in assay [2] is greater than 33 µM; in assay [3] it was greater than 330 µM.

For the molecule `O=C1Nc2ccccc2/C1=C1/SC(=S)N(C(Cc2ccc(O)cc2)C(=O)O)C1=O` (stereo unspecified) [Thiazolidinone core, 20], the figures for the Kd in assay [2] and in assay [3] were 14.1 µM and greater than 33 µM, respectively.

In the case of `O=C(O)C(Cc1ccccc1)N1C(=O)/C(=C/c2cccc(Cl)c2)SC1=S` (stereo unspecified) [Thiazolidinone core, 21], in assay [1], the midpoint of inhibition, the IC50, lay at 49 µM. Also, the Kd was found to be 21.3 µM in assay [2] and 16 µM in assay [3].

In turn, `O=C(O)C(Cc1ccccc1)N1C(=O)/C(=C/c2cccc(I)c2)SC1=S` (stereo unspecified) [Thiazolidinone core, 22] registered an IC50 in assay [1] of 41 µM. The Kd in assay [2] is 6.3 µM; in assay [3], 6 µM.

As to `O=C(O)C(Cc1ccccc1)N1C(=O)/C(=C\c2cccc(F)c2)SC1=S` (stereo unspecified) [Thiazolidinone core, 23], the dissociation constant (Kd) in assay [2] and in assay [3] was greater than 33 µM in each case.

In turn, `O=C(O)[C@H](Cc1ccccc1)N1C(=O)/C(=C/c2ccc(Br)cc2)SC1=S` [Thiazolidinone core, 24] registered an IC50 in assay [1] of 35 µM. Besides, the Kd in assay [2] was greater than 33 µM; in assay [3], 9.3 µM.

In the case of `O=C(O)C(Cc1ccccc1)N1C(=O)/C(=C\c2ccccc2Br)SC1=S` (stereo unspecified) [Thiazolidinone core, 25], the Kd in assay [2] and in assay [3] was greater than 33 µM throughout.

For the molecule `O=C(O)C(Cc1ccccc1)N1C(=O)/C(=C\c2cccc([N+](=O)[O-])c2)SC1=S` (stereo unspecified) [Thiazolidinone core, 26], the Kd in assay [2] and in assay [3] was greater than 33 µM throughout.

On to `Cc1cccc(/C=C2/SC(=S)N(C(Cc3ccccc3)C(=O)O)C2=O)c1` (stereo unspecified) [Thiazolidinone core, 27], for which the Kd in assay [2] and in assay [3] was greater than 33 µM in each case.

For the molecule `COc1cccc(/C=C2/SC(=S)N(C(Cc3ccccc3)C(=O)O)C2=O)c1` (stereo unspecified) [Thiazolidinone core, 28], the Kd in assay [2] and in assay [3] was greater than 33 µM each time.

For the molecule `O=C(O)C(Cc1ccccc1)N1C(=O)/C(=C\c2ccccc2)SC1=S` (stereo unspecified) [Thiazolidinone core, 29], the Kd in assay [2] and in assay [3] was greater than 33 µM throughout.

On to `O=C1Nc2ccc([N+](=O)[O-])cc2/C1=C1/SC(=S)N(C(Cc2ccccc2)C(=O)O)C1=O` (stereo unspecified) [Thiazolidinone core, 30], for which the IC50 in assay [1] is greater than 100 µM. In addition, the Kd in assay [2] worked out at 5.7 µM; in assay [3], 10 µM.

Take `O=C(O)N1C(=O)/C(=C\c2ccccc2)SC1=S` [Thiazolidinone core, 31]: the Kd in assay [2] is greater than 33 µM; in assay [3] it was greater than 330 µM.
